Measured values taken from patent publication US11123320B2, “Prophylactic or therapeutic agent for hyperaciive bladder” (SBI PHARMACEUTICALS CO., LTD., priority 2017, dated 2021).

How the values were obtained:
[1] = system: MDA (Malondialdehyde); experiment: MDA assay in rat bladder tissue; assay type: in vivo; conditions: male SHR, oral ALA with sodium ferrous citrate as in Example 1; vs control group
Experimental: ALA administration to a subject and the change in the amount of MDA expression was investigated. MDA is one of lipid peroxidative degradation products, and is known as a major marker of lipid peroxidation.
(§1) Preparation of the experimental and control groups was carried out with the method and conditions similar to the method described in Example 1.
(§2) The bladder tissue of experimental and control groups were processed with the procedure below, and used as samples.
1. Subject to biomasher with 400 μl of cold assay buffer.
2. Centrifuge at 15000 rpm for 5 min at 4° C. After centrifugation, add 300 μl of buffer to the supernatant and store on ice.
3. Correct with protein concentration.
ELISA assay was performed with Malondialdehyde Assay kit (NWK-MDA01) according to the protocol provided by the manufacturer.

[2] = system: overactive bladder model rats (SHR); experiment: Urination kinetics measurement with a metabolic cage; assay type: in vivo, rat; conditions: male SHR, vs saline control
Experimental: Twelve weeks old male SHR (spontaneously hypertension rata) were employed as experimental rats, and the experimental groups were divided into groups I-III by ALA administration conditions below. For experimental group II, ALA and sodium ferrous citrate were orally administered on experiment start day. The dosage of ALA was set at 10 mg/kg of body weight and sodium ferrous citrate was set at 15.7 mg/kg of body weight. On the other hand, for experimental group III, ALA was set at 100 mg/kg of body weight and sodium ferrous citrate was set at 157 mg/kg of body weight. Note that for control group I, saline only at an amount equal to ALA was administered instead of ALA and sodium ferrous citrate.
For control group I, saline was orally administered every day from experiment start day (12 weeks old) to week 6 (18 weeks old).
For experimental groups II and III, ALA and sodium ferrous citrate was orally administered every day from experiment start day (12 weeks old) to week 6 (18 weeks old).
For each experimental group, urination kinetics measurement with a metabolic cage was performed. Specifically, measurements were performed at 12 weeks old (before ALA administration) and at 18 weeks old (after ALA administration) to measure single urination amount, 24-hour urination amount, and water drinking amount. Here, the method based on Yono et al., Life Sci. 2007 Jun. 27; 81(3):218-222 (non-anesthetized, unrestrained, and day-and-night continuous measurement method of mouse urination function) was adopted as the measurement method with a metabolic cage. Note that before measurement of urination kinetics, body weight, blood pressure, and heart rate were measured as a caution in addition to the urination amount and water drinking amount. Moreover, when measuring urination kinetics, total number of urination was also measured.

[3] = system: NGF; experiment: NGF ELISA in rat bladder tissue; assay type: in vivo; conditions: male SHR, oral ALA with sodium ferrous citrate as in Example 1, vs control group
Experimental: ALA administration to a subject and the change in the amount of NGF expression was investigated. Since micturition reflex is enhanced when NGF increases in the bladder thus resulting in overactive bladder, NGF is employed as a lower urinary tract dysfunction marker.
as §1, §2
1. Wash 100 mg of tissue with 1×PBS.
2. Homogenize with 1 ml of 1×PBS.
(§3) 3. Store overnight at −20° C.
(§4) 4. Carry out freeze-thawing to destroy cell membrane, and centrifuge at 5000 G for 5 min at 4° C.
(§5) 5. Dispense and store at −20° C. or −80° C.
(§6) 6. After thawing, centrifuge again and employ for assay.
ELISA assay was performed with Rat NGF ELISA kit (CUSABIO CSB-E24685r) according to the protocol provided by the manufacturer.

[4] = system: detrusor muscle / bladder of SHR rats; experiment: Cystometry (overactive status of the detrusor muscle); assay type: in vivo, rat; conditions: 18 weeks old male SHR under urethane anesthesia, after 6 weeks oral ALA 10 or 100 mg/kg with sodium ferrous citrate; vs group without ALA
Experimental: Note that cystometry verifies the overactive status of the detrusor muscle, and is established as a method for examining overactive bladder. (1) 18 weeks old male SHR/Hos rats and Wistar/ST rat are subjected to general anesthesia by urethane (1.0 g/kg, i.p.). (2) Each rat is laid down and the extremities are fixed with packaging tape. Laparotomy is then performed, and the bladder is pressed to allow urination. Absorbent cotton with saline is placed on top to prevent drying and left for 30 minutes. (3) A catheter for cystometry is inserted into the bladder of each rat. Here, the catheter is joined to a three-way stopcock, and one end is connected to a syringe pump to continuously infuse saline into the bladder at a constant speed (12 ml/hr). The other end is connected to a pressure transducer to monitor and amplify with a pressure amplifier, and incorporated into a personal computer via Powerlab system for recording. (4) Saline is then infused and left for about 30 minutes until stable. (5) Watch the wave form to collect single urine into a 1.5 ml tube, and the weight of urine is measured. (6) Residual urine of each rat is collected and the amount is measured. (7) Peaks at similar interval and height are consecutively taken 6 times (about 1 hour).

[5] = system: Nrf2; experiment: Nrf2 ELISA in rat bladder tissue; assay type: in vivo; conditions: male SHR, oral ALA with sodium ferrous citrate as in Example 1, vs control group
Experimental: ALA administration to a subject and the change in the amount of Nrf2 expression was investigated. Nrf2 is one of transcription factors that regulate the expression of antioxidant enzymes or detoxication metabolism enzymes to control oxidative stress, and is employed as an oxidative stress marker.
as §1, §2
1. Wash excess blood with PBS.
3. Place 600 μl of PBS on ice in a biomasher to finely mince tissue.
4. Perform ultrasonic wave treatment or freeze-thawing (−20° C./room temperature) 3 times.
5. Centrifuge at 5000 G for 5 minutes.
6. Move the supernatant to a new tube (measure protein concentration).
ELISA assay was performed with Rat NFE2L2/NRF2 ELISA kit (LSBio LS-F12145) according to the protocol provided by the manufacturer.

[6] = system: bladder blood flow of SHR rats; experiment: Bladder blood flow measurement (hydrogen clearance method); assay type: in vivo, rat; conditions: male SHR after 6 weeks oral ALA 10 or 100 mg/kg with sodium ferrous citrate, vs control
Experimental: After said cystometry, bladder blood flow measurement (hydrogen clearance method) was performed according to the procedures below. (1) A silver chloride plate which is an indifferent electrode is buried under the precordium of each rat. (2) Wire platinum electrodes are incised into the bladder wall (three places in the bladder wall, data is collected 3 times each). (3) Blood flow is measured using UH-METER. Specifically, a hydrogen tank is opened to 0.3 L/min, and 100% hydrogen is directly inhaled with a funnel. Hydrogen is given until peaked, and hydrogen clearance curve is measured with the PowerLab system. The timepoint when the hydrogen clearance curve begins to drop is set at 0 second, and recording was performed for about 180 seconds. (4) The blood flow amount was calculated from the regression curve. * Half-life (T½) is determined from the regression curve Y=B−AX.

[7] = system: VEGF; experiment: VEGF ELISA in rat bladder tissue; assay type: in vivo; conditions: male SHR, oral ALA with sodium ferrous citrate as in Example 1, vs control group
Experimental: ALA administration to a subject and the change in the amount of VEGF expression was investigated. VEGF is a vascular endothelial growth factor, and is used as a marker of bladder vascular endothelial dysfunction.
as §1, §2
1. Wash 100 mg of tissue with 1×[…].
2. Homogenize with 500 μl of 1×PBS.
as §3, §4, §5, §6
ELISA assay was performed with Rat VEGF ELISA kit (CUSABIO CSB-E04757r) according to the protocol provided by the manufacturer.

[8] = ALA 10 or 100 mg/kg with sodium ferrous citrate orally every day for 6 weeks

With `NCC(=O)CCC(=O)O` [ALA, 5-aminolevulinic acid] the “amount of MDA expression in bladder tissue” value [1] was “significantly reduced”, the “increase in single urination amount compared to the control group” value ([2]; ALA 10 or 100 mg/kg with sodium ferrous citrate 15.7 or 157 mg/kg orally every day for 6 weeks, measured at 18 weeks old) was “approximately 30%” and the “24-hour urination amount compared to the control group” value [2, 8] was “increase in 24-hour urination amount”. For the same compound, the “24-hour water drinking amount” value [2, 8] was “increase in water drinking amount”, the “amount of NGF expression in bladder tissue” value [3] was “significantly reduced” and the “urination interval (cystometry)” value [4] was “extension of urination interval”. The “amount of Nrf2 expression in bladder tissue” value [5] was “significantly reduced”, the “bladder blood flow amount” value [6] was “tendency of bladder blood flow to increase ALA dosage-dependently” and the “amount of VEGF expression in bladder tissue” value [7] was “significantly reduced”.
